Measurements reported in patent US9241488B2, “Azole derivative, method for producing azole derivative, and intermediate compound” (KUREHA CORPORATION, priority 2011, dated 2016).
Read-outs that look alike come from different tables or passages of the source.

Columns and labels:
[1] = system: Rice blast (Pyricularia oryzae); type: cell-based
[2] = system: wheat-brown-rust-causing microorganisms; assay: Controlling effect on wheat brown rust (spray, pot test); type: in vivo, Puccinia recondita; settings: 1 mg/L sprayed at 1,000 L/ha, wheat NORIN No. 61, 9 to 14 days after inoculation
Method: Onto a wheat plant (cultivar: NORIN No. 61) grown to the two-leaf stage with use of a square plastic pot (6 cm×6 cm), a wettable formulation such as Formulation Example 1 which was diluted and suspended in water at a concentration of 1 mg/L was sprayed at a rate of 1,000 L/ha. The sprayed leaves were air-dried, and inoculated with spore suspension of wheat-brown-rust-causing microorganisms (adjusted at 200 spores/vision, […] was added at 60 ppm) by spraying, and kept at 25° C. and a high humidity for 48 hours. Thereafter, the plant was kept in a greenhouse. Nine to fourteen days after inoculation, the wheat brown rust lesion degree was evaluated. The protective value was calculated by the following equation. Protective value (%)=(1-mean lesion degree in sprayed plot/mean lesion degree in unsprayed plot)×100 [table] [table]

[3] = system: Wheat Septoria nodorum blotch microorganism (Phaeosphaeria nodorum); assay: Anti-bacterial effect on various microorganisms (plate medium), P.n; type: cell-based
[4] = system: Gray mold (Botritis cinerea); assay: Anti-bacterial effect on various microorganisms (plate medium), B.c; type: cell-based
[5] = system: Wheat eye spot (Pseudocercoporella herpotrichoides); assay: Anti-bacterial effect on various microorganisms (plate medium), P.h; type: cell-based
[6] = system: Alternaria blotch (Alternaria alternata); assay: Anti-bacterial effect on various microorganisms (plate medium), A.m; type: cell-based
[7] = system: Wheat pink snow mold (Microdochium nivale); assay: Anti-bacterial effect on various microorganisms (plate medium), M.n; type: cell-based
[8] = system: Rice bacterial seeding blight (Rhizopus oryzae); assay: Anti-bacterial effect on various microorganisms (plate medium), R.o; type: cell-based
[9] = system: wheat leaf blight-causing microorganisms; assay: Anti-bacterial effect on wheat leaf blight-causing microorganisms (PDA plate, mycelial growth inhibition); type: cell-based, Septoria tritici; settings: 1.25 mg/L in PDA plate medium, 25° C., 14 days
Method: In Test Examples, an anti-bacterial effect of a compound in accordance with the present invention on the wheat leaf blight-causing microorganisms was tested, and was compared with the anti-bacterial effect of a comparative compound (1).
A dimethyl sulfoxide solution (0.6 ml) containing a compound in accordance with the present invention was added to a PDA medium (potato dextrose agar medium) (60 ml) having about 60° C., and the resultant mixture was mixed thoroughly in a 100-ml conical flask. The mixture was poured into a dish, and was solidified. […]
On the other hand, a subject microorganism previously cultured on a plate medium was cut out with use of a cork borer whose diameter was 4 mm, and the wheat leaf blight-causing microorganism on the plate medium thus cut out was inoculated to the chemical-containing plate medium described above. After such inoculation, the chemical-containing plate medium was incubated at 25° C. for 14 days, and then diameters of its flora were measured. A % mycelial growth inhibition was calculated with use of the formula. R=100(dc−dt)/dc (where R=% mycelial extension inhibition, dc=flora diameter in untreated plate, dt=flora diameter in treated plate)
The results obtained as described above were evaluated on a five-point scale according to the following criteria.
• 5: % Mycerial growth inhibition of 80% or higher • 4: % Mycerial growth inhibition of less than 80 to 60% or higher • 3: % Mycerial growth inhibition of less than 60 to 40% or higher • 2: % Mycerial growth inhibition of less than 40 to 20% or higher • 1: % Mycerial growth inhibition of less than 20%

[10] = system: Cucumber fusarium wilt (Fusarium oxysporum); assay: Anti-bacterial effect on various microorganisms (plate medium), F.c; type: cell-based
[11] = system: Wheat fusarium blight (Fusarium graminearum); type: cell-based
[12] = system: Barley loose smut (Ustilago nuda); assay: Anti-bacterial effect on various microorganisms (plate medium), U.n; type: cell-based
[13] = system: Sclerotinia rot (Sclerotinia sclerotiorum); assay: Anti-bacterial effect on various microorganisms (plate medium), S.s; type: cell-based
[14] = system: Barley leaf blotch (Rhynchosporium secalis); assay: Anti-bacterial effect on various microorganisms (plate medium), R. sec; type: cell-based
[15] = system: Rice bakanae disease (Giberella fujikuroi); assay: Anti-bacterial effect on various microorganisms (plate medium), G.f; type: cell-based

Row | Compound | Growth inhibition grade P.o ([1]; 1.25 mg/L) | Growth inhibition grade P.o ([1]; 5 mg/L) | Protective value [2] | Growth inhibition grade P.n ([3]; 1.25 mg/L) | Growth inhibition grade P.n ([3]; 5 mg/L) | Growth inhibition grade B.c ([4]; 1.25 mg/L) | Growth inhibition grade B.c ([4]; 5 mg/L) | Growth inhibition grade P.h ([5]; 1.25 mg/L) | Growth inhibition grade P.h ([5]; 5 mg/L) | Growth inhibition grade A.m ([6]; 1.25 mg/L) | Growth inhibition grade A.m ([6]; 5 mg/L) | Growth inhibition grade M.n ([7]; 1.25 mg/L) | Growth inhibition grade M.n ([7]; 5 mg/L) | Growth inhibition grade R.o ([8]; 1.25 mg/L) | Growth inhibition grade R.o ([8]; 5 mg/L) | Growth inhibition grade [9] | Growth inhibition grade F.c ([10]; 1.25 mg/L) | Growth inhibition grade F.c ([10]; 5 mg/L) | Growth inhibition grade F.g ([11]; 1.25 mg/L) | Growth inhibition grade F.g ([11]; 5 mg/L) | further results
1 | CCOC[C@]1(CCl)CC[C@@H](Cc2ccc(F)cc2)[C@]1(O)Cn1cncn1 (racemic) [Compound I-226, (1RS,2RS,5SR)-5-(4-fluorobenzyl)-2-chloromethyl-2-ethoxymethyl-1H-[1,2,4]triazole-1-ylmethylcyclopentanol] | 5 (% Mycerial growth inhibition of 80% or higher) | 5 (% Mycerial growth inhibition of 80% or higher) | 4 (61 to 80) | 5 (% Mycerial growth inhibition of 80% or higher) | 5 (% Mycerial growth inhibition of 80% or higher) | 5 (% Mycerial growth inhibition of 80% or higher) | 5 (% Mycerial growth inhibition of 80% or higher) | 4 (% Mycerial growth inhibition of less than 80 to 60% or higher) | 5 (% Mycerial growth inhibition of 80% or higher) | 4 (% Mycerial growth inhibition of less than 80 to 60% or higher) | 5 (% Mycerial growth inhibition of 80% or higher) | 5 (% Mycerial growth inhibition of 80% or higher) | 5 (% Mycerial growth inhibition of 80% or higher) | 5 (% Mycerial growth inhibition of 80% or higher) | 5 (% Mycerial growth inhibition of 80% or higher) | 5 (% Mycerial growth inhibition of 80% or higher) | 5 (% Mycerial growth inhibition of 80% or higher) | 5 (% Mycerial growth inhibition of 80% or higher) | 5 (% Mycerial growth inhibition of 80% or higher) | 5 (% Mycerial growth inhibition of 80% or higher) | Growth inhibition grade U.n ([12]; 1.25 mg/L): 5 (% Mycerial growth inhibition of 80% or higher); Growth inhibition grade U.n ([12]; 5 mg/L): 5 (% Mycerial growth inhibition of 80% or higher); Growth inhibition grade S.s ([13]; 1.25 mg/L): 5 (% Mycerial growth inhibition of 80% or higher); Growth inhibition grade S.s ([13]; 5 mg/L): 5 (% Mycerial growth inhibition of 80% or higher); Growth inhibition grade R. sec ([14]; 1.25 mg/L): 5 (% Mycerial growth inhibition of 80% or higher); Growth inhibition grade R. sec ([14]; 5 mg/L): 5 (% Mycerial growth inhibition of 80% or higher); Growth inhibition grade G.f ([15]; 1.25 mg/L): 5 (% Mycerial growth inhibition of 80% or higher); Growth inhibition grade G.f ([15]; 5 mg/L): 5 (% Mycerial growth inhibition of 80% or higher)
2 | COC[C@]1(CCl)CC[C@@H](Cc2ccc(F)cc2)[C@]1(O)Cn1cncn1 (racemic) [Compound I-170, (1RS,2RS,5SR)-5-(4-fluorobenzyl)-2-chloromethyl-2-methoxymethyl-1H-[1,2,4]triazole-1-ylmethylcyclopentanol] | 5 (% Mycerial growth inhibition of 80% or higher) | 5 (% Mycerial growth inhibition of 80% or higher) | 4 (61 to 80) | 5 (% Mycerial growth inhibition of 80% or higher) | 5 (% Mycerial growth inhibition of 80% or higher) | 5 (% Mycerial growth inhibition of 80% or higher) | 5 (% Mycerial growth inhibition of 80% or higher) | 5 (% Mycerial growth inhibition of 80% or higher) | 5 (% Mycerial growth inhibition of 80% or higher) | 4 (% Mycerial growth inhibition of less than 80 to 60% or higher) | 5 (% Mycerial growth inhibition of 80% or higher) | 5 (% Mycerial growth inhibition of 80% or higher) | 5 (% Mycerial growth inhibition of 80% or higher) | 5 (% Mycerial growth inhibition of 80% or higher) | 5 (% Mycerial growth inhibition of 80% or higher) | 5 (% Mycerial growth inhibition of 80% or higher) | 5 (% Mycerial growth inhibition of 80% or higher) | 5 (% Mycerial growth inhibition of 80% or higher) | 5 (% Mycerial growth inhibition of 80% or higher) | 5 (% Mycerial growth inhibition of 80% or higher) | Growth inhibition grade U.n ([12]; 1.25 mg/L): 5 (% Mycerial growth inhibition of 80% or higher); Growth inhibition grade U.n ([12]; 5 mg/L): 5 (% Mycerial growth inhibition of 80% or higher); Growth inhibition grade S.s ([13]; 1.25 mg/L): 5 (% Mycerial growth inhibition of 80% or higher); Growth inhibition grade S.s ([13]; 5 mg/L): 5 (% Mycerial growth inhibition of 80% or higher); Growth inhibition grade R. sec ([14]; 1.25 mg/L): 5 (% Mycerial growth inhibition of 80% or higher); Growth inhibition grade R. sec ([14]; 5 mg/L): 5 (% Mycerial growth inhibition of 80% or higher); Growth inhibition grade G.f ([15]; 1.25 mg/L): 5 (% Mycerial growth inhibition of 80% or higher); Growth inhibition grade G.f ([15]; 5 mg/L): 5 (% Mycerial growth inhibition of 80% or higher)
